The record followed here is PubChem BioAssay AID200 (DTP/NCI, 2004).

The subject of this assay is B6C3F1 mice, B16 melanoma ip, median survival T/C. The assay can be described thus: NCI In Vivo Anticancer Drug Screen. Data for tumor model B16 Melanoma (intraperitoneal) in B6C3F1 mice. The settings on record: endpoint: median survival time, higher = longer survival. The procedure: The antitumor activity of compounds was measured in mice bearing transplantable tumors. Survival or tumor size were measured and the results are expressed as the measurement made in the treated group (T) divided by the measurement made in the vehicle treated control group (C). The tumor model used in this assay is B16 Melanoma (intraperitoneal) in B6C3F1 mice

Setting [1] is: dose: 6.0 mg/kg/injection, schedule: Q01DX009 (ip), vehicle: saline with Tween-80.
Setting [2] is: dose: 12.5 mg/kg/injection, schedule: Q01DX009 (ip), vehicle: saline with Tween-80.
Setting [3] is: dose: 25.0 mg/kg/injection, schedule: Q01DX009 (ip), vehicle: saline with Tween-80.
Setting [4] is: dose: 50.0 mg/kg/injection, schedule: Q01DX009 (ip), vehicle: saline with Tween-80.
Setting [5] is: dose: 100.0 mg/kg/injection, schedule: Q01DX009 (ip), vehicle: saline with Tween-80.
Setting [6] is: dose: 25.0 mg/kg/injection, schedule: Q01DX009 (ip), vehicle: Klucel (hydroxypropylcellulose) (HPC).
The mark [7] stands for this setting: dose: 50.0 mg/kg/injection, schedule: Q01DX009 (ip), vehicle: Klucel (hydroxypropylcellulose) (HPC).
Setting [8] is: dose: 100.0 mg/kg/injection, schedule: Q01DX009 (ip), vehicle: Klucel (hydroxypropylcellulose) (HPC).

Where “and” joins values, the source holds several entries; their conditions need not be identical. Equal entries are not always repeated. Toxic doses and inconclusive results are not listed.

As to `O=C(Nc1ccccc1)c1c(O)[nH]c(=S)[nH]c1=O`, the T/C reads like this: under setting [1], 108 % of control; under setting [2], 114 % of control and 115 % of control; (dose: 44.0 mg/kg/injection, schedule: Q01DX009 (ip), vehicle: saline with Tween-80) 153 % of control; (dose: 56.0 mg/kg/injection, schedule: Q01DX009 (oral), vehicle: saline with Tween-80) 111 % of control; (dose: 67.0 mg/kg/injection, schedule: Q01DX009 (ip), vehicle: saline with Tween-80) 161 % of control; (dose: 83.0 mg/kg/injection, schedule: Q01DX009 (oral), vehicle: saline with Tween-80) 117 % of control. Moreover, the T/C runs as follows: (dose: 100.0 mg/kg/injection, schedule: Q01DX005 (oral), vehicle: saline with Tween-80) 110 % of control; (dose: 124.0 mg/kg/injection, schedule: Q01DX009 (oral), vehicle: saline with Tween-80) 114 % of control; (dose: 149.0 mg/kg/injection, schedule: Q01DX005 (oral), vehicle: saline with Tween-80) 118 % of control; (dose: 185.0 mg/kg/injection, schedule: Q01DX009 (oral), vehicle: saline with Tween-80) 121 % of control; (dose: 223.0 mg/kg/injection, schedule: Q01DX005 (oral), vehicle: saline with Tween-80) 114 % of control; (dose: 333.0 mg/kg/injection, schedule: Q01DX005 (oral), vehicle: saline with Tween-80) 116 % of control.

Take `CN(C)c1nc(N(C)C)nc(N(C)C)n1`: the T/C under setting [2] was 88 % of control.

As for `CC1=CC2C(O)(CC(CO)=CC3C4C(C)(C)C4(OC(=O)c4ccccc4)C(OC(=O)c4ccccc4)C(C)C32O)C1=O` (stereo not given), the T/C is 98 % of control (dose: 0.13 mg/kg/injection, schedule: Q01DX009 (ip), vehicle: saline with Tween-80); 90 % of control (dose: 0.25 mg/kg/injection, schedule: Q01DX009 (ip), vehicle: saline with Tween-80); 93 % of control (dose: 0.5 mg/kg/injection, schedule: Q01DX009 (ip), vehicle: saline with Tween-80); 95 % of control (dose: 1.0 mg/kg/injection, schedule: Q01DX009 (ip), vehicle: saline with Tween-80); 90 % of control (dose: 2.0 mg/kg/injection, schedule: Q01DX009 (ip), vehicle: saline with Tween-80).

Take `O=S(=O)(CCl)OCCCl`: the T/C was 97 % of control and 100 % of control (dose: 6.25 mg/kg/injection, schedule: Q01DX009 (ip), vehicle: saline with Tween-80); 108 % of control and 113 % of control and 103 % of control under setting [2]; 114 % of control and 115 % of control and 102 % of control under setting [3]; 109 % of control and 100 % of control under setting [4]; 110 % of control under setting [5].

On to `C[C@@H]1C[C@@H]([C@H](O)CC2CC(=O)NC(=O)C2)C(=O)[C@@H](C)C1`, for which the T/C (dose: 12.5 mg/kg/injection, schedule: Q01DX009 (ip), vehicle: saline) was 105 % of control; the T/C (dose: 25.0 mg/kg/injection, schedule: Q01DX009 (ip), vehicle: saline) is 111 % of control; the T/C (dose: 50.0 mg/kg/injection, schedule: Q01DX009 (ip), vehicle: saline) was 106 % of control.

For the molecule `CC(C)N1C(=O)N(Cl)C2C1N(Cl)C(=O)N2Cl` (stereo not given), the T/C was 108 % of control (dose: 1.5 mg/kg/injection, schedule: Q01DX009 (ip), vehicle: saline with Tween-80); 104 % of control (dose: 3.0 mg/kg/injection, schedule: Q01DX009 (ip), vehicle: saline with Tween-80); 98 % of control under setting [1]; 94 % of control (dose: 12.0 mg/kg/injection, schedule: Q01DX009 (ip), vehicle: saline with Tween-80); 108 % of control (dose: 24.0 mg/kg/injection, schedule: Q01DX009 (ip), vehicle: saline with Tween-80).

With `CC(=O)O[C@H]1C(=O)[C@@]2(C)C(C(OC(=O)c3ccccc3)[C@]3(O)CC(OC(=O)[C@H](OC(=O)CCC(=O)O)C(NC(=O)c4ccccc4)c4ccccc4)C(C)=C1C3(C)C)C1(OC(C)=O)COC1C[C@@H]2OC(=O)CCC(=O)O` (stereo not given in full), the T/C is 109 % of control (dose: 2.75 mg/kg/injection, schedule: Q01DX009 (ip), vehicle: sodium bicarbonate); 120 % of control (dose: 2.75 mg/kg/injection, schedule: Q01DX009 (ip), vehicle: water); 113 % of control (dose: 5.5 mg/kg/injection, schedule: Q01DX009 (ip), vehicle: sodium bicarbonate); 114 % of control (dose: 5.5 mg/kg/injection, schedule: Q01DX009 (ip), vehicle: water); 124 % of control (dose: 11.0 mg/kg/injection, schedule: Q01DX009 (ip), vehicle: sodium bicarbonate); 105 % of control (dose: 22.0 mg/kg/injection, schedule: Q01DX009 (ip), vehicle: sodium bicarbonate). Further, the T/C (dose: 22.0 mg/kg/injection, schedule: Q01DX009 (ip), vehicle: water) was 109 % of control; the T/C (dose: 44.0 mg/kg/injection, schedule: Q01DX009 (ip), vehicle: sodium bicarbonate) was 114 % of control; the T/C (dose: 44.0 mg/kg/injection, schedule: Q01DX009 (ip), vehicle: water) was 166 % of control.

As for `CSCCC(NC(=O)CN)C(=O)O` (stereo not given), the T/C was 87 % of control (dose: 100.0 mg/kg/injection, schedule: Q01DX009 (ip), vehicle: saline); 90 % of control (dose: 200.0 mg/kg/injection, schedule: Q01DX009 (ip), vehicle: saline); 91 % of control (dose: 400.0 mg/kg/injection, schedule: Q01DX009 (ip), vehicle: saline).

On to `O=C(Nc1ccccc1C(=O)O)c1cc([N+](=O)[O-])cc([N+](=O)[O-])c1`, for which the T/C reads like this: under setting [2], 92 % of control; under setting [3], 100 % of control; under setting [4], 97 % of control; under setting [5], 96 % of control.

Regarding `C=CC(C)(C)n1cc(C2=C(O)C(=O)C(c3cn(C(C)(C)C=C)c4ccccc34)=C(O)C2=O)c2ccccc21`, the T/C is, setting by setting: (dose: 2.5 micrograms/kg/injection, schedule: Q01DX009 (ip), vehicle: DMSO) 87 % of control; (dose: 5.0 micrograms/kg/injection, schedule: Q01DX009 (ip), vehicle: DMSO) 91 % of control; (dose: 10.0 micrograms/kg/injection, schedule: Q01DX009 (ip), vehicle: DMSO) 86 % of control; (dose: 20.0 micrograms/kg/injection, schedule: Q01DX009 (ip), vehicle: DMSO) 87 % of control.

For the molecule `CC(C)CCCCCCCCCCCCC(=O)NCC(=O)NC1C(C)OC(Nc2ncnc3nc[nH]c23)C(O)C1O` (stereo not given), the T/C runs as follows: (dose: 0.25 mg/kg/injection, schedule: Q01DX008 (ip), vehicle: distilled water + Tween-80) 95 % of control; (dose: 0.25 mg/kg/injection, schedule: Q01DX009 (ip), vehicle: distilled water + Tween-80) 112 % of control; (dose: 0.5 mg/kg/injection, schedule: Q01DX008 (ip), vehicle: distilled water + Tween-80) 95 % of control; (dose: 0.5 mg/kg/injection, schedule: Q01DX009 (ip), vehicle: distilled water + Tween-80) 112 % of control; (dose: 1.0 mg/kg/injection, schedule: Q01DX008 (ip), vehicle: distilled water + Tween-80) 98 % of control; (dose: 2.0 mg/kg/injection, schedule: Q01DX008 (ip), vehicle: distilled water + Tween-80) 111 % of control.

For `CCC1OCC(C(Cl)CCl)O1` (stereo not given), the T/C reads like this: under setting [6], 105 % of control; under setting [7], 96 % of control; under setting [8], 91 % of control; (dose: 200.0 mg/kg/injection, schedule: Q01DX009 (ip), vehicle: Klucel (hydroxypropylcellulose) (HPC)) 98 % of control.

Take `COc1cc2c(c3c1c(=O)c1cccc(F)c1n3C)C=CC(C)(C)O2`: the T/C by setting is: under setting [6], 109 % of control; under setting [7], 119 % of control; under setting [8], 88 % of control.

With `C(CC1CO1)C1CO1` (stereo not given), the T/C runs as follows: (dose: 2.5 mg/kg/injection, schedule: Q01DX009 (ip), vehicle: Klucel (hydroxypropylcellulose) (HPC)) 94 % of control; (dose: 5.0 mg/kg/injection, schedule: Q01DX009 (ip), vehicle: Klucel (hydroxypropylcellulose) (HPC)) 101 % of control; (dose: 10.0 mg/kg/injection, schedule: Q01DX009 (ip), vehicle: Klucel (hydroxypropylcellulose) (HPC)) 101 % of control; (dose: 20.0 mg/kg/injection, schedule: Q01DX009 (ip), vehicle: Klucel (hydroxypropylcellulose) (HPC)) 111 % of control; (dose: 40.0 mg/kg/injection, schedule: Q01DX009 (ip), vehicle: Klucel (hydroxypropylcellulose) (HPC)) 107 % of control; (dose: 80.0 mg/kg/injection, schedule: Q01DX009 (ip), vehicle: Klucel (hydroxypropylcellulose) (HPC)) 98 % of control.
